Data published in patent publication US11052154B2, “Ras protein degradation inducing molecule and pharmaceutical composition” (Tokyo University of Science Foundation, priority 2016, dated 2021).

What was measured:
SW1990 cells = test: Anti-tumor effect in mice subcutaneously implanted with human pancreatic cancer cells (SW1990 cells); assay type: in vivo, mouse; settings: BALB/c nu/nu mice, SW1990 subcutaneous, oral 80 mg/kg once every 3 days, 7 doses, vs Vehicle; FIG. 9A
Method: In Example 10, TUS-007 was administered to mice subcutaneously implanted with human pancreatic cancer cells (SW1990 cells), and an anti-tumor effect was evaluated.
To the subcutis of T-cell deficient mice (BALB/cAJcl-nu/nu, 4 weeks old, female) (CLEA Japan, Inc.), 0.1 mL of cell suspension in which SW1990 cells were suspended in PBS so as to be 1×10^7 cells/mL was implanted using a 26-gauge injection needle (TERUMO CORPORATION).
Immediately before administration, TUS-007 was dissolved in DMSO, 0.5 mass % carboxymethyl cellulose (Code No. 039-01335, Wako Pure Chemical Industries, Ltd.) solution was added so that the concentration of DMSO became 2.5 vol %, followed by pulverization by ultrasonic treatment to prepare a suspension of TUS-007. When the tumors of mice with subcutaneously implanted SW1990 cells grew to a size of approximately 100 mm^3, the prepared TUS-007 suspension was orally administered by gavage with a gastric tube (Code No. 5202K, Fuchigami Kikai) at a dose of 80 mg/kg body weight once every 3 days for a total of 7 doses (n=6 to 9). As a control (Vehicle), 0.5 mass % carboxymethyl cellulose solution containing 2.5 vol % DMSO was administered in the same manner.
The tumor volume (mm^3) was calculated by measuring the tumor size using a caliper, and using the formula (minor axis diameter)^2×major axis diameter/2.

[1] = target: T1, endogenous wild-type K-Ras protein (Homo sapiens, UniProt P01116); test: Degradation of endogenous wild-type K-Ras protein in HeLa cells, Western blot analysis; assay type: cell-based; settings: 48 hours after addition, vs control (DMSO), FIG. 5
T1 construct: an endogenous wild-type K-Ras protein; endogenous in cells; host or cells: HeLa
Method: In Example 6, degradation (knockdown) of an endogenous wild-type K-Ras protein and wild-type H-Ras protein in HeLa cells to which TUS-007 had been added was evaluated by Western blot analysis.
HeLa cells were seeded in a 24-well plate at a cell density of 8×10^4 cells/well, and then cultured under conditions of 37° C. and 5 vol % CO2 for 16 hours.
After 16 hours from cell seeding, TUS-007 was added to HeLa cells as follows. As a medium, a serum-free medium (37° C.) in which 1 mass % L-glutamine solution (Sigma-Aldrich) was added to D-MEM (high D-glucose, phenol red, sodium pyruvate (Wako Pure Chemical Industries, Ltd.)) was used. It is noted that the L-glutamine solution was added immediately before use. A DMSO solution containing TUS-007 was mixed with the medium so that the concentration of DMSO was 1 vol %, and added to each well at 500 μL/well, and cultured under conditions of 37° C. and 5 vol % CO2. As a control, DMSO was used. […]
After electrophoresis, proteins were transferred to a PVDF membrane (Immobion™-P, Millipore) under conditions of 100 V and 2 hours using a tank-type blotting device and a transfer buffer (25 mM Tris-HCl, 195 mM glycine, 0.01% SDS, 15% methanol). […] Subsequently, the membrane was treated with a chemiluminescence reagent Immobilon™ Western (Millipore), and then chemiluminescence was detected using a lumino image analyzer LAS-3000 (FUJIFILM Corporation). […]

[2] = Acute toxicity, single oral dose in Jcl:ICR mice; assay type: in vivo, mouse
Method: Acute toxicity when TUS-007 was orally administered to Jcl:ICR mice (8 weeks old, female) (CLEA Japan, Inc.) in a single dose of 80 mg/kg body weight, 300 mg/kg body weight, or 1000 mg/kg body weight was evaluated.

T1 sequence (P01116 1-188 isoform P01116-2): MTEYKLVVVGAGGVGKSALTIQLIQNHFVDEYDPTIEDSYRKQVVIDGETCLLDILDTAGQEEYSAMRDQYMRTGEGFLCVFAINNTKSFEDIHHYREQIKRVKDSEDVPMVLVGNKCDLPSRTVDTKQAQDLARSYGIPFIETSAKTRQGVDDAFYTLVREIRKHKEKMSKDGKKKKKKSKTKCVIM

With `CCC(C)[C@H](NC(=O)CCCCCCNC(=O)[C@H](CC(C)C)NC(=O)CNC(=O)c1cc(Cl)ccc1Cl)C(=O)Nc1ccc2[nH]c(Cc3c[nH]c4ccccc34)nc2c1` (stereo in doubt) [TUS-007] the “increase of the tumor volume” value (SW1990 cells) was “the increase of the tumor volume was significantly suppressed (p=0.004)”, the “amount of the endogenous wild-type K-Ras protein (Western blot)” value [1] was “the amount of the endogenous wild-type K-Ras protein and wild-type H-Ras protein was reduced” and the LD50 ([2]; single oral dose) was > 1000 mg/kg body weight. For the same molecule, the “general condition of the mice (acute toxicity)” value ([2]; single oral dose of 80, 300 or 1000 mg/kg body weight) was “no abnormality in the general condition of the mice”.
